Reference: PMC10885103, “Deciphering the Synthetic and Refolding Strategy of a Cysteine-Rich Domain in the Tumor Necrosis Factor Receptor (TNF-R) for Racemic Crystallography Analysis and D-Peptide Ligand Discovery” (ACS Bio & Med Chem Au, 2023)
Where no end group is shown, it is not given here.

How the values were obtained:
D-TNFR-1 CRD2 [1] = experiment: Mirror-image phage display against D-TNFR-1 CRD2; type: binding; details: after three rounds of biopanning, D-TNFR-1 CRD2 3 μg on streptavidin/neutravidin beads
Excerpt: The receptor mimic was subjected to mirror-image molecular screening as a means of seeking ligands that inhibit TNF-α binding. […] A D-peptide inhibitor could be potentially tested as a candidate against TNFR-1-related inflammatory diseases localized in the protease-rich gastrointestinal tract.[10b],[20] Consequently, the D-TNFR-1 CRD2 serves as a receptor mimic in mirror-image phage display (MIPD), a molecular screening technique that exploits the concept of reflection symmetry for the discovery of peptide ligands in opposite chirality.[5b] To conduct the experiment, D-TNFR-1 CRD2 was biotinylated at the C-terminus, immobilized onto streptavidin-coated beads, and subjected to phage display. Subsequently, bacteriophage libraries[21] consisted of the sequence format CX9C where X could be any canonical amino acid and terminal cysteine residues used for cyclization were tested. […] This was confirmed by an additional phage display experiment, in which the WLG motif was fixed in the format CX4WLGX2C.
The peptides were linked to the gene-3 coat protein (pIII) via a trialanine (Ala-Ala-Ala) spacer. Gel purified DNA encoding the libraries were ligated into the pCantab 5E phagemid vector, and transformed into chemically competent E. coli TG1. 20-fold excess of helper phage M13KO7 was used during rescue and amplification of the bacteriophages. […]

D-TNFR-1 CRD2 [2] = experiment: GCI single-cycle binding of TCPB-E-C1 and -C4 isomers to D-TNFR-1 CRD2; details: single cycle of association and dissociation, 50 μM of each peptide conformer, blank subtracted
Procedure: (§1) Grating-coupled interferometry (GCI) experiments were performed on a Creoptix WAVEsystem using 4PCH-STA WAVE sensor chips (polycarboxylate surface, streptavidin coated) or 4PCH WAVE sensor chips (polycarboxylate surface) as indicated. Chips were first conditioned with borate buffer (0.1 M sodium borate, pH 9, 1 M Sodium chloride).
Figure S4.10: Grating-coupled interferometry (GCI) analysis of TCPB-E-C1 and -C4 isomers binding to
D-TNFR-1 CRD2. A single cycle of association and dissociation were passed over the sensor surface, with
μM of each peptide conformer. Sensograms shown are blank subtracted (target flow cell - flow cell with 50
TCPB-E-C4. The TCPB-E-C1 conformer was thus identified as the active form of the TCPB peptide.
(§2) (1 picture or pasted object on this page, not shown here)

D-TNFR-1 CRD2 [3] = experiment: GCI (RAPID, repeated analyte pulses of increasing duration) of TCPB-E isomers on D-TNFR-1 CRD2; type: binding; details: fixed concentration of each conformer, D-TNFR-1 CRD2, blank subtracted
Procedure: as §1
S4. Identification of active binding peptide conformer
Figure S4.1: Six possible conformers of TCPB, oxidized with either glutathione (TCPB-E-G) or cysteine […]
TCPB solution phase oxidation […]
form. In a 10 mL round bottomed flask, the peptide (50 μM) was dissolved in 5 mL of buffer (0.1 M phosphate, pH 6) containing 0.5 mM of either cystine or glutathione. The reaction mixtures were stirred for six hours at room temperature. Reaction completion was confirmed by LCMS, by taking 10 μL of reaction mixture and diluting with 90 μL of distilled water. The two disulfide bonded products for each cysteine and glutathione mixture were isolated by semi-preparative HPLC.
as §2
Figure S4.6: LCMS disulfide bond mapping of isolated TCPB-E peak i, oxidized with glutathione disulfide.
Lyophilized peptide was digested with chymotypsin (0.1 mg/mL) in phosphate buffer ( 0.1 M, pH 6) at room temperature for 12 hours. […]

Sequence: CFHCVWLGMEC
- phage display selection outcome, experiment 1 (D-TNFR-1 CRD2 [1]; CX9C library): enriched

Sequence: CFHCIWLGDEC (disulfide (positions not given here)) [TCPB, intramolecular disulfide bond between residues 4–11, cysteinylated at position 1]
- sensor response/binding of TCPB-E isomers to D-TNFR-1 CRD2 (D-TNFR-1 CRD2 [2]): highest sensor response
- sensor response with respect to concentration among TCPB-E isomers (D-TNFR-1 CRD2 [3]): highest sensor response

Sequence: CFHCIWLGDEC
- phage display selection outcome, experiment 2 (D-TNFR-1 CRD2 [1]; CX4WLGX2C library): most abundant peptide sequence
